Tested on: E. coli
Experiment: Efficacy of treated coupons after inoculation with E. coli (Examples II-V)
Assay type: cell-based
Conditions: Examples IV/V: organosilane with triethanolamine coating first, Titanium Oxide Moieties (TiO2) disposed over it
Procedure: This Example II disposes the components of the composition onto a target surface in a reverse order. More specifically, Applicants first dispose the Titanium-Oxide Moieties onto the target surface, the aqueous portion of the first spray deposition is evaporated, and then dispose Octadecylaminodimethyltrihydroxysilylpropyl Ammonium Chloride 6 over the earlier-disposed Titanium-Oxide Moieties.
The test coupons of this Example II were prepared and using the Procedure recited immediately hereinbelow. In various embodiments, the treated coupons were stored for at least four (4) weeks prior to inoculation with various organisms.
This Example III simultaneously disposes a mixture of the organosilane and the Titanium-Oxide Moieties onto the surface of a plurality of test coupons. More specifically in this Example III, the simultaneously dispose the Titanium-Oxide Moieties and Octadecylaminodimethyltrihydroxysilylpropyl Ammonium Chloride 6 onto a surface of each test coupon.
The test coupons of this Example III were prepared and using the Procedure recited immediately hereinbelow. In various embodiments, the treated coupons were stored for at least four (4) weeks prior to inoculation with various organisms.
The test coupons of this Example IV were prepared and using the Procedure recited immediately hereinbelow. […]

| SMILES | efficacy of treated coupons (self-decontaminating surface) |
| --- | --- |
| NCCC[Si](O)(O)O [3-aminopropyltrihydroxysilane] | generates a self-decontaminating surface |
| O[Si](O)(O)CCCCl [3-chloropropyltrihydroxysilane] | generates a self-decontaminating surface |
